Assay results as given in patent US6914045B2, “Glycopeptide antibiotics” (Wyeth Holdings Corporation, priority 2001, dated 2005).
Values after ≈ are worked out from the molar mass of the structure shown.

What was measured:
Experiment in all cases: in vitro antibacterial evaluation, MIC by broth dilution
Format in all cases: cell-based
[1] = tested on: Escherichia coli; conditions: 18 hours at 35° C.
In short: (§1)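 Step 1: dilute antibiotic across 64-0.06 μg/mL in Muller-Hinton II […]. Step 2: inoculate at 5×10^5 CFU/mL.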

[2] = tested on: Enterococcus sp.; conditions: broth dilution, 18 hours at 35° C.
In short: as §1

[3] = tested on: Staphylococcus sp.; conditions: broth dilution, 18 hours at 35° C.
In short: as §1

[4] = tested on: Streptococcus sp.; conditions: broth dilution, 18 hours at 35° C.
In short: as §1

MIC Escherichia coli (ATCC 25922) ([1]; Escherichia coli (ATCC 25922)): 64 µg/mL (≈ 45.8 µM)
MIC Escherichia coli (GC 4559) ([1]; Escherichia coli (GC 4559)): >64 µg/mL
MIC Escherichia coli (GC 4560) ([1]; Escherichia coli (GC 4560)): 4 µg/mL (≈ 2.86 µM)
MIC Enterococcus avium (GC 4558) ([2]; Enterococcus avium (GC 4558)): 64 µg/mL (≈ 45.8 µM)
MIC Enterococcus faecalis (ATCC 29212) ([2]; Enterococcus faecalis (ATCC 29212)): 64 µg/mL (≈ 45.8 µM)
MIC Enterococcus faecalis (GC 4553) ([2]; Enterococcus faecalis (GC 4553)): 64 µg/mL (≈ 45.8 µM)
MIC Enterococcus faecalis (GC 4554) ([2]; Enterococcus faecalis (GC 4554)): 64 µg/mL (≈ 45.8 µM)
MIC Enterococcus faecium (GC 2243) ([2]; Enterococcus faecium (GC 2243)): 64 µg/mL (≈ 45.8 µM)
MIC Enterococcus faecium (GC 4556) ([2]; Enterococcus faecium (GC 4556)): 64 µg/mL (≈ 45.8 µM)
MIC Enterococcus faecium (GC 4557) ([2]; Enterococcus faecium (GC 4557)): 8 µg/mL (≈ 5.72 µM)
MIC Enterococcus faecalis (ATCC 29212) ([2]; strain ATCC 29212): 64 µg/mL (≈ 45.8 µM)
MIC Enterococcus faecalis (GC 2242) ([2]; strain GC 2242): 32 µg/mL (≈ 22.9 µM)
MIC Enterococcus faecium (GC 2243) ([2]; strain GC 2243): 64 µg/mL (≈ 45.8 µM)
MIC Enterococcus faecalis (GC 4552) ([2]; strain GC 4552): 64 µg/mL (≈ 45.8 µM)
MIC Enterococcus faecalis (GC 4553) ([2]; strain GC 4553): 64 µg/mL (≈ 45.8 µM)
MIC Enterococcus faecalis (GC 4554) ([2]; strain GC 4554): 64 µg/mL (≈ 45.8 µM)
MIC Enterococcus faecium (GC 4556) ([2]; strain GC 4556): 64 µg/mL (≈ 45.8 µM)
MIC Enterococcus faecium (GC 4557) ([2]; strain GC 4557): 8 µg/mL (≈ 5.72 µM)
MIC Enterococcus avium (GC 4558) ([2]; strain GC 4558): 64 µg/mL (≈ 45.8 µM)
MIC Coagulase Negative Staphylococcus (GC 4547) [3]: 4 µg/mL (≈ 2.86 µM)
MIC Coagulase Negative Staphylococcus (GC 4548) [3]: 4 µg/mL (≈ 2.86 µM)
MIC Coagulase Negative Staphylococcus (GC 4549) [3]: 4 µg/mL (≈ 2.86 µM)
MIC Coagulase Negative Staphylococcus (GC 4551) [3]: 8 µg/mL (≈ 5.72 µM)
MIC Staphylococcus aureus (ATCC 29213) [3]: 8 µg/mL (≈ 5.72 µM)
MIC Staphylococcus aureus (GC 1131) [3]: 8 µg/mL (≈ 5.72 µM)
MIC Staphylococcus aureus (GC 4541) [3]: 8 µg/mL (≈ 5.72 µM)
MIC Staphylococcus aureus (GC 4542) [3]: 8 µg/mL (≈ 5.72 µM)
MIC Staphylococcus aureus (GC 4544) [3]: 8 µg/mL (≈ 5.72 µM)
MIC Staphylococcus aureus (GC 4545) [3]: 4 µg/mL (≈ 2.86 µM)
MIC Staphylococcus aureus-SMITH (GC 4543) [3]: 8 µg/mL (≈ 5.72 µM)
MIC Staphylococcus aureus (ATCC 29213) ([3]; strain ATCC 29213): 8 µg/mL (≈ 5.72 µM)
MIC Staphylococcus aureus (GC 1131) ([3]; strain GC 1131): 8 µg/mL (≈ 5.72 µM)
MIC Staphylococcus aureus (GC 4541) ([3]; strain GC 4541): 8 µg/mL (≈ 5.72 µM)
MIC Staphylococcus aureus (GC 4542) ([3]; strain GC 4542): 8 µg/mL (≈ 5.72 µM)
MIC Staphylococcus aureus (GC 4544) ([3]; strain GC 4544): 8 µg/mL (≈ 5.72 µM)
MIC Staphylococcus aureus (GC 4545) ([3]; strain GC 4545): 4 µg/mL (≈ 2.86 µM)
MIC Coagulase Negative Staphylococcus (GC 4547) ([3]; strain GC 4547): 4 µg/mL (≈ 2.86 µM)
MIC Coagulase Negative Staphylococcus (GC 4548) ([3]; strain GC 4548): 4 µg/mL (≈ 2.86 µM)
MIC Coagulase Negative Staphylococcus (GC 4549) ([3]; strain GC 4549): 4 µg/mL (≈ 2.86 µM)
MIC Coagulase Negative Staphylococcus (GC 4551) ([3]; strain GC 4551): 8 µg/mL (≈ 5.72 µM)
MIC Staphylococcus aureus-SMITH (GC 4543) ([3]; strain SMITH GC 4543): 8 µg/mL (≈ 5.72 µM)
MIC Streptococcus agalactiae (GC 4564) ([4]; strain GC 4564): 4 µg/mL (≈ 2.86 µM)
MIC Streptococcus pyogenes (ID-3187) ([4]; strain ID-3187): 4 µg/mL (≈ 2.86 µM)
Structure (SMILES): CC(C)CC(=O)OC1C(O)C(CO)OC(OC2C(CO)OC(Oc3ccc(CC4NC(=O)C(C(C)c5cccc(F)c5)NC(=O)CNC(=O)C(CO)NC(=O)C(C(O)C5CNC(=N)N5C5OC(CO)C(O)C(O)C5O)NC(=O)C(C(O)C5CNC(=N)N5)NC4=O)cc3)C(O)C2O)C1O (stereo not drawn) [Example 264b, Cyclo[glycyl-3-fluoro-β-methylphenylalanyl-O-[4-O-[3-O-(3-methylbutanoyl)hexopyranosyl]-hexopyranosyl]tyrosyl-3-(2-iminoimidazolidin-4-yl)seryl-3-(3-hexopyranosyl-2-iminoimidazolidin-4-yl)serylseryl]]
MIC Staphylococcus haemolyticus (GC 4546) [3]: 4 µg/mL (≈ 2.86 µM)
MIC Staphylococcus haemolyticus (GC 4546) ([3]; strain GC 4546): 4 µg/mL (≈ 2.86 µM)
